Biological target: T1, Recombinant His-tagged HIV-1 integrase (Human immunodeficiency virus type 1 group M subtype B, UniProt P12497, C1427S/F1332K)
T1 construct: Recombinant His-tagged HIV-1 integrase; His; made in house; host or cells: E. coli BL21(DE3)
Assay: Enzymatic integrase assay (oligonucleotide-based DNA strand transfer, ELISA)
Format: biochemical
Settings: not given
Procedure: Enzymatic Integrase Assay
The activity of HIV-integrase was determined using an oligonucleotide-based assay in which the DNA strand transfer by preformed complexes of integrase and processed DNA was measured by means of an enzyme-linked immunosorbent assay (ELISA) in microtiter plate format. Recombinant His-tagged HIV-1 integrase was produced in the E. coli strain BL21(DE3) from the plasmid pINSD.His.sol (available from NTH) after induction with isopropyl-β-D-thiogalactopyranoside (IPTG) according to described procedures (cfr. ref. Jenkins et al., “A soluble active mutant of HIV-1 integrase”, J. Biol. Chem. 271 ([…]), 7712-7718). HPLC-purified oligodeoxynucleotides were obtained from Proligo, and used for preparation of the viral DNA substrate and target DNA.
INb-1C is 5′-biotinylated, INT5 and INT6 are at the 3′-end labeled with FITC. INb-1C and IN-1NC correspond to the U5 end of the HIV-1 LTR. The DNA substrate for the integrase reactions was made by annealing INb-1C and IN-1NC. An equimolar mixture of INb-1C and IN-1NC was heated shortly at 95° C. in the presence of 100 mM NaCl and allowed to cool slowly to room temperature. In the same way, INT5 and INT6 were annealed to produce a target DNA molecule.
The integration strand transfer reactions were performed in the following way:
20 nM biotinylated DNA substrate INb-1C/IN-1NC was pre-incubated with 300 nM HIV-integrase at 37° C. for 5 min, to allow the cleavage reaction to occur. The candidate compounds and 50 nM target DNA INT5/INT6 were added to the reaction mix containing 20 mM Hepes pH 7.5, 25 mM NaCl, 5 mM MnCl2, 2 mM DTT, and 50 μg/ml BSA, and incubated for 2 h at 37° C. The reaction mix was transferred to streptavidin-coated plates (Exiqon), which were prewashed (three times) with 5×SSCT, and incubated for 1 h at room temperature to allow capture of the biotinylated viral DNA/target DNA complex. Plates were washed three times with 2×SSCT buffer, and anti-FITC POD-coupled antibody (Roche) was added and incubated for 1 h at room temperature to detect integrated FITC-labeled target DNA. After a final washing step with PBST (5 times), BM chemiluminescent POD-substrate (Roche) was added, and luminescence was read out.
The table below list the pIC50 values for those compounds tested in the enzymatic integrase assay. The pIC50 is expressed in Molar units and is the value according to the following formula: pIC50=−log IC50
wherein the IC50 value is the drug concentration at which 50% of the enzyme or viral activity is inhibited.

| SMILES | IC50 |
| --- | --- |
| Cc1ccc(CN2C(=O)c3c(c(O)c4nccnc4c3O)C2=O)cc1 [Compound 3, 5,9-Dihydroxy-7-(4-methyl-benzyl)-pyrrolo[3,4-g]quinoxaline-6,8-dione] | 1580 nM |
| O=C1c2c(c(O)c3nccnc3c2O)C(=O)N1Cc1ccc(Br)cc1 [Compound 4, 7-(4-Bromo-benzyl)-5,9-dihydroxy-pyrrolo[3,4-g]quinoxaline-6,8-dione] | 219 nM |
| O=C1c2c(c(O)c3ncccc3c2O)C(=O)N1Cc1ccc2c(c1)OCO2 [Compound 5, 7-Benzo[1,3]dioxol-5-ylmethyl-5,9-dihydroxy-pyrrolo[3,4-g]quinoline-6,8-dione] | 5620 nM |
| O=C1c2c(c(O)c3nccnc3c2O)C(=O)N1Cc1ccc(Oc2ccccc2)cc1 [Compound 7, 5,9-Dihydroxy-7-(4-phenoxy-benzyl)-pyrrolo[3,4-g]quinoxaline-6,8-dione] | 4900 nM |
| Cc1ccc2c(O)c3c(c(O)c2n1)C(=O)N(C(C)c1ccccc1)C3=O (centres unmarked) [Compound 8, 5,9-Dihydroxy-2-methyl-7-(1-phenyl-ethyl)-pyrrolo[3,4-g]quinoline-6,8-dione] | 10700 nM |
| O=C1c2c(c(O)c3nccnc3c2O)C(=O)N1c1ccc2c(c1)OCO2 [Compound 10, 7-Benzo[1,3]dioxol-5-yl-5,9-dihydroxy-pyrrolo[3,4-g]quinoxaline-6,8-dione] | 10000 nM |
| O=C1c2c(c(O)c3ccccc3c2O)C(=O)N1Cc1ccc(F)cc1 [Compound 11, 2-(4-Fluoro-benzyl)-4,9-dihydroxy-benzo[f]isoindole-1,3-dione] | > 100000 nM |
| O=C1c2c(c(O)c3ccccc3c2O)C(=O)N1CCc1ccccc1 [Compound 12, 4,9-Dihydroxy-2-phenethyl-benzo[f]isoindole-1,3-dione] | > 100000 nM |
| O=C1c2c(c(O)c3c(F)cccc3c2O)C(=O)N1Cc1ccc(F)cc1 [Compound 13, 5-Fluoro-2-(4-fluoro-benzyl)-4,9-dihydroxy-benzo[f]isoindole-1,3-dione] | > 100000 nM |
| O=C1c2c(c(O)c3nccnc3c2O)C(=O)N1CCc1ccccc1 [Compound 14, 5,9-Dihydroxy-7-phenethyl-pyrrolo[3,4-g]quinoxaline-6,8-dione] | 2040 nM |
| C[C@H](c1ccccc1)N1C(=O)c2c(c(O)c3nccnc3c2O)C1=O [Compound 15, 5,9-Dihydroxy-7-(1-(R)-phenyl-ethyl)-pyrrolo[3,4-g]quinoxaline-6,8-dione] | 1050 nM |
| O=C1c2c(c(O)c3nccnc3c2O)C(=O)N1Cc1cccc(F)c1 [Compound 16, 7-(3-Fluoro-benzyl)-5,9-dihydroxy-pyrrolo[3,4-g]quinoxaline-6,8-dione] | 562 nM |
| COc1ccc(CN2C(=O)c3c(c(O)c4nccnc4c3O)C2=O)cc1 [Compound 17, 5,9-Dihydroxy-7-(4-methoxy-benzyl)-pyrrolo[3,4-g]quinoxaline-6,8-dione] | 562 nM |
| O=C1c2c(c(O)c3nccnc3c2O)C(=O)N1Cc1cccc(CN2C(=O)c3c(c(O)c4nccnc4c3O)C2=O)c1 [Compound 18, 7-[3-(5,9-Dihydroxy-6,8-dioxo-6,8-dihydro-pyrrolo[3,4-g]quinoxalin-7-ylmethyl)-benzyl]-5,9-dihydroxy-pyrrolo[3,4-g]quinoxaline-6,8-dione] | 7590 nM |
| Cc1ccc2c(O)c3c(c(O)c2n1)C(=O)N(CCc1ccccc1)C3=O [Compound 19, 5,9-Dihydroxy-2-methyl-7-phenethyl-pyrrolo[3,4-g]quinoline-6,8-dione] | 4170 nM |
| Cc1ccc2c(O)c3c(c(O)c2n1)C(=O)N(Cc1ccc2c(c1)OCO2)C3=O [Compound 20, 7-Benzo[1,3]dioxol-5-ylmethyl-5,9-dihydroxy-2-methyl-pyrrolo[3,4-g]quinoline-6,8-dione] | 2140 nM |
| Cc1ccc2c(O)c3c(c(O)c2n1)C(=O)N(Cc1cccc(F)c1)C3=O [Compound 21, 7-(3-Fluoro-benzyl)-5,9-dihydroxy-2-methyl-pyrrolo[3,4-g]quinoline-6,8-dione] | 871 nM |

| SMILES | IC50 |
| --- | --- |
| Cc1ccc2c(O)c3c(c(O)c2n1)C(=O)N(Cc1ccc(F)cc1)C3=O [Compound 22, 7-(4-Fluoro-benzyl)-5,9-dihydroxy-2-methyl-pyrrolo[3,4-g]quinoline-6,8-dione] | 398 nM |
| COc1ccc(CN2C(=O)c3c(c(O)c4nc(C)ccc4c3O)C2=O)cc1 [Compound 23, 5,9-Dihydroxy-7-(4-methoxy-benzyl)-2-methyl-pyrrolo[3,4-g]quinoline-6,8-dione] | 1480 nM |
| O=C1c2c(c(O)c3ncccc3c2O)C(=O)N1CCc1ccccc1 [Compound 24, 5,9-Dihydroxy-7-phenethyl-pyrrolo[3,4-g]quinoline-6,8-dione] | 2510 nM |
| CC(c1ccccc1)N1C(=O)c2c(c(O)c3nccnc3c2O)C1=O (centres unmarked) [Compound 25, 5,9-Dihydroxy-7-(1-phenyl-ethyl)-pyrrolo[3,4-g]quinoxaline-6,8-dione] | 2040 nM |
| O=C1c2c(c(O)c3nccnc3c2O)C(=O)N1CC1CCCCC1 [Compound 26, 7-Cyclohexylmethyl-5,9-Dihydroxy-pyrrolo[3,4-g]quinoxaline-6,8-dione] | 2190 nM |
| O=C1c2c(c(O)c3nccnc3c2O)C(=O)N1Cc1cccc2ccccc12 [Compound 27, 5,9-Dihydroxy-7-naphthalen-1-ylmethyl-pyrrolo[3,4-g]quinoxaline-6,8-dione] | 1410 nM |
| O=C1c2c(c(O)c3nccnc3c2O)C(=O)N1CCN1CCOCC1 [Compound 28, 5,9-Dihydroxy-7-(2-morpholine-4-yl-ethyl)-pyrrolo[3,4-g]quinoxaline-6,8-dione] | 66100 nM |
| O=C1c2c(c(O)c3nccnc3c2O)C(=O)N1Cc1ccncc1 [Compound 29, 5,9-Dihydroxy-7-pyridin-4-ylmethyl-pyrrolo[3,4-g]quinoxaline-6,8-dione] | 6760 nM |
| Cc1ccc2c(O)c3c(c(O)c2n1)C(=O)N(c1ccccc1)C3=O [Compound 30, 5,9-Dihydroxy-2-methyl-7-phenyl-pyrrolo[3,4-g]quinoline-6,8-dione] | 24000 nM |
| O=C1c2c(c(OCc3ccccc3)c3nccnc3c2O)C(=O)N1Cc1ccc2c(c1)OCO2 [Compound 31, 7-Benzo[1,3]dioxol-5-ylmethyl-5-benzyloxy-9-hydroxy-pyrrolo[3,4-g]quinoxaline-6,8-dione] | > 100000 nM |
| O=C1c2c(c(O)c3nccnc3c2O)C(=O)N1C1CCCC1 [Compound 32, 7-Cyclopentyl-5,9-dihydroxy-pyrrolo[3,4-g]quinoxaline-6,8-dione] | 10500 nM |
| O=C1c2c(c(O)c3nccnc3c2O)C(=O)N1c1ccc(F)cc1 [Compound 33, 7-(4-Fluoro-phenyl)-5,9-dihydroxy-pyrrolo[3,4-g]quinoxaline-6,8-dione] | 21900 nM |
| CS(=O)(=O)c1ccc(CN2C(=O)c3c(c(O)c4nccnc4c3O)C2=O)cc1 [Compound 34, 5,9-Dihydroxy-7-(4-methanesulfonyl-benzyl)-pyrrolo[3,4-g]quinoxaline-6,8-dione] | 8710 nM |
| O=C1c2c(c(O)c3nccnc3c2O)C(=O)N1c1ccccc1Br [Compound 35, 7-(2-Bromo-phenyl)-5,9-dihydroxy-pyrrolo[3,4-g]quinoxaline-6,8-dione] | 1820 nM |
| C#CCOc1c2c(c(O)c3nccnc13)C(=O)N(Cc1ccc3c(c1)OCO3)C2=O [Compound 36, 7-Benzo[1,3]dioxol-5-ylmethyl-5-hydroxy-9-prop-2-ynyloxy-pyrrolo[3,4-g]quinoxaline-6,8-dione] | 18200 nM |
| CC(C)CCOc1c2c(c(O)c3nccnc13)C(=O)N(Cc1ccc3c(c1)OCO3)C2=O [Compound 37, 7-Benzo[1,3]dioxol-5-ylmethyl-5-hydroxy-9-(3-methyl-butoxy)-pyrrolo[3,4-g]quinoxaline-6,8-dione] | 1480 nM |
| O=C1c2c(c(O)c3c(ncn3Cc3ccccc3)c2O)C(=O)N1Cc1ccc2c(c1)OCO2 [Compound 38, 6-Benzo[1,3]dioxol-5-ylmethyl-1-benzyl-4,8-dihydroxy-1H-1,3,6-triaza-s-indacene-5,7-dione] | 479 nM |

Same assay, conditions: pIC50=−log IC50, expressed in Molar units; strand transfer, 5 mM MnCl2, 2 h at 37° C.

| SMILES | pIC50 |
| --- | --- |
| CCOC(=O)C(=O)Oc1c2c(c(O)c3nccnc13)CN(Cc1ccc3c(c1)OCO3)C2 [Compound 6, Oxalic acid 7-benzo[1,3]dioxol-5-ylmethyl-9-hydroxy-6,8-dihydro-6H-pyrrolo[3,4-g]quinoxalin-5-yl ester ethyl ester] | 5.50 |

— patent US20060211724A1, “Hiv integrase inhibitors” (priority 2003, published 2006)
